Data as given in BindingDB's records for doi:10.1021/jm960276a (Texas A&M University, 1996).
Square brackets hold non-standard residues; d marks the D form. Peptide text beside a SMILES is read from it. NMeR = CN[C@@H](CCCNC(=N)N)C(=O)O; 3Amb = NCc1cccc(C(=O)O)c1; dAbu = CC[C@@H](N)C(=O)O

Molecular target: Integrin alpha-IIb/beta-3 (Homo sapiens, UniProt P08514+P05106)
Experiment: Inhibition of human platelet aggregation mediated by alpha llb/beta3 interaction with fibrinogen

Sequence of Integrin alpha-IIb/beta-3 (P05106 27-788 limits assumed): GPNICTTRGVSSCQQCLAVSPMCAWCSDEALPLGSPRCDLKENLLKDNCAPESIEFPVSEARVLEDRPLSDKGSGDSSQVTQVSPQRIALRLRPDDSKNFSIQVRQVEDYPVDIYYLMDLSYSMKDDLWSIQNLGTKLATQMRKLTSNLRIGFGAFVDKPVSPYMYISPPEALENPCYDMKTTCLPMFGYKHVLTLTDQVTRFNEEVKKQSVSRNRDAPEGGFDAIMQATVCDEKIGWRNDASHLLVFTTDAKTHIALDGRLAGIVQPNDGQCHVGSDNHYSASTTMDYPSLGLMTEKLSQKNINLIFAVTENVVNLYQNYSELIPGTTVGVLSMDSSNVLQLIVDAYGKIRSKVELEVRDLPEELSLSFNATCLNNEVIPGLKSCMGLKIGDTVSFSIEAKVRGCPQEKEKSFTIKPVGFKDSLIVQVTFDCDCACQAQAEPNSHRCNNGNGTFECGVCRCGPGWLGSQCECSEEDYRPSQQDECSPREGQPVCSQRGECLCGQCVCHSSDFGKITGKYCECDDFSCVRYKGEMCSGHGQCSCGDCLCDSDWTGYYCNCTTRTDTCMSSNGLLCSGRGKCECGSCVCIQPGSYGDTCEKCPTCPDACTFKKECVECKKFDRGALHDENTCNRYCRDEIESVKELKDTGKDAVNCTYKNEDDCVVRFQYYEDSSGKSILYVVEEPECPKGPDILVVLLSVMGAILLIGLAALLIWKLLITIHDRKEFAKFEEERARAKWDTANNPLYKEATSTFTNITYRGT
Sequence of Integrin alpha-IIb/beta-3 (P08514 32-887 limits assumed): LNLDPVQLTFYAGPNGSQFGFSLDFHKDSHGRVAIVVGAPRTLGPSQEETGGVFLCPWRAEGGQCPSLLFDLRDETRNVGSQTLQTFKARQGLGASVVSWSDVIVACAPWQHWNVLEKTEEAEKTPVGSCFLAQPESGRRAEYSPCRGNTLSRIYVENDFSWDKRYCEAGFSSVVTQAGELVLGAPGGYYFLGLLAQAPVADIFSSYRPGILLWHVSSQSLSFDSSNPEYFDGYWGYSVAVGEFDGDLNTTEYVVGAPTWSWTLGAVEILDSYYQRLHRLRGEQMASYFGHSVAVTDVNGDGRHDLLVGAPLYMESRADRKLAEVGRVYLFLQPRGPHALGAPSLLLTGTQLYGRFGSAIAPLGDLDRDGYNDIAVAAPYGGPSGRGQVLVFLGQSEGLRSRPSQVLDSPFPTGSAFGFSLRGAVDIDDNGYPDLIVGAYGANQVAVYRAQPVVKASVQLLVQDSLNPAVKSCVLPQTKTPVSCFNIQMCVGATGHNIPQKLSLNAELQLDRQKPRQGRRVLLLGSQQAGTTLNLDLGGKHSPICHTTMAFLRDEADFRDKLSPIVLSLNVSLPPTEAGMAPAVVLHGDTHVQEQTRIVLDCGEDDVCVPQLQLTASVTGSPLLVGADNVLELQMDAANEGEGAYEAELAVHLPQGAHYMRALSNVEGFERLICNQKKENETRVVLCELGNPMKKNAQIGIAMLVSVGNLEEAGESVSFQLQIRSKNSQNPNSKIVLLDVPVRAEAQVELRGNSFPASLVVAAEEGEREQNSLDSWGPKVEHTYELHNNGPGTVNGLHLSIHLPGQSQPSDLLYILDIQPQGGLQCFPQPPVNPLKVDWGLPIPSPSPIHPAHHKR
Sequence of Integrin alpha-IIb/beta-3 (P08514 891-1039 limits assumed): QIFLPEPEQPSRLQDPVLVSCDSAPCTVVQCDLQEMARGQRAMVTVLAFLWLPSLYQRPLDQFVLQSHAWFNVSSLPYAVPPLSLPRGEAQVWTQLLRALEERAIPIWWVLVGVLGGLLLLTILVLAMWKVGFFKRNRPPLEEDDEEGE

With N=C(N)NCCC[C@H](NC(=O)[C@H](CC(=O)O)NC(=O)CNC(=O)[C@@H](N)CCCNC(=N)N)C(=O)NCC(=O)N[C@@H](CC(=O)O)C(=O)O [(S)-2-[2-((S)-2-{(S)-2-[2-((S)-2-Amino-5-guanidino-pentanoylamino)-acetylamino]-3-carboxy-propionylamino}-5-guanidino-pentanoylamino)-acetylamino]-succinic acid] (H-RGDRGD-OH) the IC50 was > 100 µM.
In the case of CC[C@H]1NC(=O)c2cccc(c2)CNC(=O)[C@H](CC(=O)O)NC(=O)CNC(=O)[C@H](CCCN=C(N)N)N(C)C1=O [DMP-728] (cyclo([NMeR]GD[3Amb][dAbu])), the IC50 is reported as 0.02 µM.
N=C(N)NCCC[C@@H]1NC(=O)[C@H](CC(=O)O)NC(=O)CNC(=O)[C@H](CCCNC(=N)N)NC(=O)[C@H](CC(=O)O)NC(=O)CNC1=O [[(2S,5R,11R,14S)-11-Carboxymethyl-5,14-bis-(3-guanidino-propyl)-3,6,9,12,15,18-hexaoxo-1,4,7,10,13,16hexaaza-cyclooctadec-2-yl]-acetic acid] was tested, and the IC50 was > 100 µM.
With N=C(N)NCCC[C@@H]1NC(=O)[C@H](CC(=O)O)NC(=O)CNC(=O)[C@H](CCCNC(=N)N)NC(=O)[C@@H](CC(=O)O)NC(=O)CNC1=O [[(2S,5R,11S,14S)-11-Carboxymethyl-5,14-bis-(3-guanidino-propyl)-3,6,9,12,15,18-hexaoxo-1,4,7,10,13,16hexaaza-cyclooctadec-2-yl]-acetic acid] the IC50 was > 100 µM.
